Here are results for 8 compounds from patent US8507411B2, “Neoglycorandomization and digitoxin analogs” (priority 2004, dated 2013).

Like-named read-outs stand apart in the source and are kept apart here.

In one assay the test system is Hep3B. In words: High-throughput calcein AM cytotoxicity assay, Hep3B. Type of assay: cell-based, human. To be noted: Hep 3B cells; read-out: IC50, Hep 3B. An excerpt:
(§1) Standard errors are depicted with error bars.

For a further assay, the system named is Du145. Kind of assay: High-throughput calcein AM cytotoxicity assay, Du145. It is filed as cell-based, human. To be noted: Du145 cells; read-out: IC50, Du145.
Text: as §1

The test system of another assay is NCI-H460. In words: High-throughput calcein AM cytotoxicity assay, NCI-H460. It is filed as cell-based, human. To be noted: NCI-H460 cells; read-out: IC50, NCI-H460.
Text: as §1

Another assay has as its system NmuMG. Kind of assay: cells. It is filed as cell-based, mouse. The gist of the method:
(§2)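 Compounds were tested at five concentrations in two-fold steps against attached cells and incubated for 72 h. Live cells were then quantified by calcein fluorescence after a 30 min calcein AM loading at 37 °C. Percent inhibition versus log concentration was fitted to a four-parameter logistic model.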

The test system of a further assay is MCF7. In words: High-throughput calcein AM cytotoxicity assay, MCF7. Type of assay: cell-based, human. To be noted: MCF7 cells; read-out: IC50, MCF7.
Text: as §1

In a further assay the test system is SK-OV-3. Kind of assay: cells. It is filed as cell-based, human. As to conditions: SK-OV-3 cells; read-out: IC50, SK-OV-3. Summed up: as §2
The subject of a further assay is NCI/ADR-RES. In words: cells. Type of assay: cell-based, human. To be noted: NCI/ADR-RES cells; read-out: IC50, NCI/ADR-RES. The gist of the method: as §2
For another assay, the system named is SF-268. Kind of assay: cells. Type of assay: cell-based, human. As to conditions: SF-268 cells; read-out: IC50, SF-268. The gist of the method:
as §2

The subject of the next assay is A549. In words: High-throughput calcein AM cytotoxicity assay, A549. It is filed as cell-based, human. As to conditions: A549 cells; read-out: IC50, A549.
Text: as §1

The test system of a further assay is HCT-116. In words: High-throughput calcein AM cytotoxicity assay, HCT-116. It is filed as cell-based, human. As to conditions: HCT-116 cells; read-out: IC50, HCT-116.
Text: as §1

[1] abbreviates: NmuMG mouse mammary normal epithelial control line, read-out: IC50, NmuMG.

As for `CON(C1CCC2(C)C(CCC3C2CCC2(C)C(C4=CC(=O)OC4)CCC32O)C1)C1CC(O)C(O)C(CO)O1` [9α, 2-deoxy-D-galactoside], the IC50 with Hep3B, with Du145, in the assay on NCI-H460, in the assay with NmuMG (setting [1]), in the assay on MCF7 and in the assay with SK-OV-3 was more than 25000 nM throughout. The IC50 with NCI/ADR-RES, in the assay on SF-268, in the assay with A549 and with HCT-116 was more than 25000 nM each time.

For the compound `CON([C@H]1CC[C@@]2(C)[C@H](CC[C@@H]3[C@@H]2CC[C@]2(C)[C@@H](C4=CC(=O)OC4)CC[C@]32O)C1)[C@@H]1O[C@H](CO)[C@H](O)[C@@H](O)[C@H]1O` [25β, D-guloside], the IC50 with Hep3B is 1900 nM; in the assay with Du145 it was 5700 nM; with NCI-H460, 2600 nM; with NmuMG (setting [1]) it was 1800 nM; in the assay on MCF7 it was 900 nM; with SK-OV-3 it was 2200 nM. Moreover, the IC50 in the assay on NCI/ADR-RES was 1100 nM; in the assay on SF-268, 2000 nM; with A549, 2000 nM; with HCT-116, 2100 nM.

Take `CON([C@H]1CC[C@@]2(C)[C@H](CC[C@@H]3[C@@H]2CC[C@]2(C)[C@@H](C4=CC(=O)OC4)CC[C@]32O)C1)[C@@H]1OC[C@@H](O)[C@@H](O)[C@H]1O` [6β, D-riboside]: the IC50 in the assay with Hep3B was 900 nM; in the assay on Du145, 720 nM; in the assay with NCI-H460, 900 nM; in the assay with NmuMG (setting [1]), 480 nM; in the assay with MCF7, 3000 nM; with SK-OV-3 it was 1700 nM. Moreover, the IC50 is 660 nM in the assay on NCI/ADR-RES, 1800 nM with SF-268, 1020 nM with A549 and 1300 nM in the assay on HCT-116.

Regarding `CON(C1CCC2(C)C(CCC3C2CCC2(C)C(C4=CC(=O)OC4)CCC32O)C1)C1OC(CO)C(O)C(O)C1O` [19α, L-altroside], the IC50 with Hep3B, in the assay with Du145, with NCI-H460, with NmuMG (setting [1]), in the assay on MCF7 and with SK-OV-3 was more than 25000 nM in each case. For the same compound, the IC50 with NCI/ADR-RES, in the assay on SF-268, in the assay on A549 and in the assay with HCT-116 was more than 25000 nM throughout.

For the compound `CON(C1CCC2(C)C(CCC3C2CCC2(C)C(C4=CC(=O)OC4)CCC32O)C1)C1CC(C)(O)C(O)C(C)O1` [30α, L-mycaroside], the IC50 with Hep3B is more than 25000 nM; with Du145 it was more than 25000 nM; in the assay with NCI-H460, more than 25000 nM; in the assay with NmuMG (NmuMG cells (mouse mammary normal epithelial control line), read-out: IC50), more than 25000 nM; with MCF7 it was more than 25000 nM; with SK-OV-3 it was more than 25000 nM. Moreover, the IC50 with NCI/ADR-RES, in the assay with SF-268, with A549 and with HCT-116 was more than 25000 nM in each case.

With L-rhamnoside [16α], the IC50 in the assay on Hep3B, in the assay on Du145, in the assay on NCI-H460, in the assay with NmuMG (setting [1]), with MCF7 and in the assay on SK-OV-3 was more than 25000 nM throughout. Also, the IC50 in the assay with NCI/ADR-RES, in the assay with SF-268, in the assay with A549 and in the assay with HCT-116 was more than 25000 nM throughout.

Take `CON([C@H]1CC[C@@]2(C)[C@H](CC[C@@H]3[C@@H]2CC[C@]2(C)[C@@H](C4=CC(=O)OC4)CC[C@]32O)C1)[C@@H]1OC[C@@H](O)[C@H](O)[C@H]1O` [24β, D-xyloside]: the IC50 is 1200 nM in the assay on Hep3B; 820 nM in the assay on Du145; 1800 nM with NCI-H460; 900 nM with NmuMG (setting [1]); 1800 nM in the assay on MCF7; 1800 nM in the assay with SK-OV-3. For the same compound, the IC50 is 540 nM with NCI/ADR-RES, 2100 nM in the assay on SF-268, 1100 nM with A549 and 1800 nM in the assay with HCT-116.

Consider `CON([C@H]1CC[C@@]2(C)[C@H](CC[C@@H]3[C@@H]2CC[C@]2(C)[C@@H](C4=CC(=O)OC4)CC[C@]32O)C1)[C@@H]1O[C@H](CO)[C@@H](O)C[C@H]1O` [10β, 3-deoxy-D-glucoside], for which the IC50 in the assay on Hep3B is 1700 nM; in the assay with Du145, 800 nM; with NCI-H460, 1600 nM; in the assay on NmuMG (setting [1]) it was 940 nM; in the assay on MCF7, 460 nM; with SK-OV-3, 2500 nM. For the same compound, the IC50 in the assay with NCI/ADR-RES is 440 nM; in the assay on SF-268, 770 nM; with A549 it was 1600 nM; in the assay on HCT-116, 1800 nM.
